# Measurements published in US10076505B2, “Inhalation formulations of Treprostinil” (priority 2003, dated 2018).
# Tested on: sheep
# Assay: Aerosolized UT-15 at high doses on baseline hemodynamics (Example III)
# Assay type: in vivo
# Excerpt: The efficacy of benzindene prostaglandins, such as UT-15, for treating pulmonary hypertension can be assessed by determining the hemodynamics associated with pulmonary hypertension. In particular, measurements of pulmonary arterial pressure (PPA), left atrial pressure (PLA), central venous pressure (PCV), systemic arterial pressure (PSYS), heart rate (HR), and cardiac output (CO) are useful in determining the effects of benzindene prostaglandins delivered by inhalation or parenterally.
# Although pulmonary arterial pressure can be directly measured and is often used to quantify pulmonary arterial hypertension, PPA can be affected by 3 other variables: CO, PLA and PVR, as indicated by Equation 1: PPA=(CO*PVR)+PLA (1)
# On the other hand, PVR can not be directly measured and must be calculated by the following Equation 2: PVR=(PPA−PLA)/CO (2)
# Heart rate was determined by measuring the time (seconds) required for 25 heart beats to occur (t25) as indicated by the pulsations on the blood flow meter; the beats per minute (BPM) were calculated by the following equation: BPM=(25 beats/t25)*60 seconds
# All pressure may be monitored by commercially available transducers, such as Model 1290A HEWLETT PACKARD™ transducer (Andover, Mass.), which is attached to VALIDYNE CD19A Carrier Dmod. Amplifiers (Northridge, Calif.). Cardiac output may be measured by a Transonic Systems T101 Ultrasonic Bloodflow Meter (Ithaca, N.Y.). The pressure and blood flow signals may be recorded on ASTROMED MT-9500 Stripchart Recorder (West Warwick, R.I.) and digitally recorded with a personal computer using Easy Data Acquisition Software (Nashville, Tenn.).
# Six yearling sheep (3 males, 3 females; 21-37 kg) were fasted 18-24 hours and initially anesthetized with a short acting barbiturate (thiopental) to allow intubation of the sheep. Halothane gas anesthesia (1.5-2.5%) was then used for the surgical procedures. Via a left thoracotomy, a Transonic blood flow probe was placed around the main pulmonary artery, silastic catheters placed in the main pulmonary artery and left atrium. After approximately 7 days the sheep were reanesthetized and the left carotid artery cannulated, a Cordis Introducer Sheath inserted in the left jugular vein, and a tracheotomy made. The sheep were allowed to recover for another 3-5 days prior to experimentation. These sheep were used to allow measurement of pulmonary arterial pressure (PPA), left atrial pressure (PLA), central venous pressure (PCV), systemic arterial pressure (PSYS), heart rate (HR), and cardiac output (CO) after baseline measurements were made for a minimum of 30 minutes.
# Baseline measurements consisted of 30 minutes of monitoring during vehicle/saline aerosolization (0.28 ml/min). […]
# [1] = 3800-5700 ng per kg per min, 90 minutes
compound,measurement,setting,value
"CCCCC[C@H](O)CC[C@@H]1[C@H]2Cc3cccc(OCC(=O)O)c3C[C@H]2C[C@H]1O [UT-15, 9-deoxy-2′,9-alpha-methano-3-oxa-4,5,6-trinor-3,7-(1′,3′-interphenylene)-13,14-dihydro-prostaglandin F1]",PPA decrease relative to baseline,[1],approximately 18%
same,PSYS decrease relative to baseline,[1],7.5%
same,PVR decrease relative to baseline,[1],approximately 19%
same,"non-lung effects (heart rate, cardiac output)",high doses,without significant non-lung effects
